# Assay: Human HepG2 cell viability assay in 384 well format
# Assay type: toxicity, cell-based
# Parameters: dose 125 nL, time 70.5 hour; concentration not given beside the values
# Conditions: HepG2 cells, read-out: Inhibition
row,SMILES,cytotoxicity at 70.5 h [%]
1,Cc1cccc(SC2CCN(Cc3nc(CC4CC4)no3)CC2)c1,0.0623
2,O=C(CNc1cc(-c2ccccc2)nc2ccnn12)NC1CC1,-0.964
3,COc1ccc(C)cc1-n1cnnc1C1CCCN(C)C1 (stereo not given),9.2
4,CN(Cc1cccc2ncccc12)C(=O)CCn1ccc(=O)[nH]c1=O,-1.13
5,Cc1nc(N(C)C)nc(NCCc2cnccn2)c1C,-1.68
6,O=S(=O)(CC1CC1)c1ncc(CN2CCOCC2)n1CC1CCCO1 (stereo not given),-0.667
7,c1cc(CN2CCCN(c3ccc4cc[nH]c4n3)CC2)ccn1,-1.4
8,CCCc1nnc(N(C)CC2CCCN(CC)C2)o1 (stereo not given),15.4
9,Cc1c(C2c3nc[nH]c3CCN2CCOCc2ccccc2)cnn1C (stereo not given),-10.4
10,CCN(Cc1c(F)cccc1Cl)c1cc(C2CCNCC2)nc(C)n1,2.62
11,CCCc1ccc(CN2CCN(C(=O)N(C)C)[C@@H]3CS(=O)(=O)C[C@@H]32)o1,-10.7
12,CCc1ccc2ncn(Cc3ncc[nH]3)c(=O)c2c1,-18.6
13,CC(C)Cc1ncc2c(n1)CN(C(=O)Cn1c(=O)oc3ccccc31)C2,-14.5
14,CC(Cn1ccnc1)NCc1ccc2nonc2c1 (stereo not given),-2.31
15,CCc1ncc2c(n1)CN(c1cc(N3CCN(C)CC3)nc(N)n1)C2,25
16,Cc1cccc2[nH]c(C3CCN(C(=O)c4ccc[nH]4)CC3)nc12,-6.62
17,Cc1nc(CNCc2cccnc2Oc2ccc(C)c(F)c2F)c[nH]1,0.762
18,CN(CCN1CCCCCC1)C(=O)c1cc(CN2CCCC(O)C2)on1 (stereo not given),-10.1
19,COCCN(C/C=C/c1ccccc1)Cc1ncc[nH]1,-5.41
20,c1ccc(Cc2noc(-c3ccc(NCC4CCCOC4)nc3)n2)cc1 (stereo not given),-2.44
21,COc1ccc2c(C)c(C(=O)NCCCc3csc(N)n3)oc2c1,8.41
22,CC(=O)N1CCCn2nc(CNS(=O)(=O)N3CCC(C)CC3)cc2C1,-11.6

row,SMILES,cytotoxicity at 70.5 h [%]
1,CCn1nc(C)c(NC(=O)CN2CC[C@@H](F)C2)c1C,-4.28
2,NC(=O)NCC(=O)N1C[C@H]2CC[C@@H]1CN(Cc1cscn1)C2,9.8
3,O=C(N[C@@H]1CCN(C(=O)c2ccc(F)cc2Cl)C[C@H]1O)c1ccccn1,-6.49
4,Cc1nn2cc(CNc3nccc(CCC(F)(F)F)n3)nc2s1,-9.54
5,COCc1cc(CNC(=O)c2c(C)c(C)cc(C)c2C)n[nH]1,-4.32
6,CCOc1cccc(C(=O)N2CCCn3nc(CCC(=O)O)cc3C2)c1,-5.68
7,COc1ccc(CN2CCCC3(CC2)CNC(=O)O3)cc1OC (stereo not given),12.1
8,Cc1ccccc1-n1cc(C2=CCN(CCN3CCOCC3)CC2)cn1,12.8
9,COc1cccc(-c2noc(-c3ccc(NCC(C)C)nc3)n2)c1OC,-2.74
10,COCCc1noc(CN2CCC(c3ccccc3C(=O)O)C2)n1 (stereo not given),-20.1
11,Cc1nc2c(c(NCC3Cc4ccccc4CN3C)n1)CCNCC2 (stereo not given),-8.03
12,Cc1nc(C(=O)N(Cc2c(C)nn(C)c2C)C(C)C)cs1,-0.883
13,CC(C)c1noc(C2CCCN2S(=O)(=O)N2CCCCCC2)n1 (stereo not given),-6.79
14,Cc1nccc(NCc2cc3n(n2)CCCN(S(C)(=O)=O)C3)n1,-3.08
15,CN(Cc1noc2c1CCCC2)C(=O)Nc1cccc(S(N)(=O)=O)c1,17.1
16,COc1ccc(-n2nc(C(C)C)nc2COC(C)C)cc1,20.2
17,CCn1c(C)nnc1SCCn1cc(-c2ncc[nH]2)nn1,-5.72
18,O=C(O)c1ccnc(-c2ccnc(N3CCC4(CCO4)CC3)n2)c1,-11.6
19,Cc1cccc(N2CCC(N3CCCC4(CNC(=O)O4)C3)CC2)c1C (stereo not given),-7.33
20,CCCn1ccnc1CN1CCCC(CC)(CO)C1 (stereo not given),26.9
21,COCCC1(CO)CCCN(C(=O)CCC(F)(F)F)C1 (stereo not given),-10.8
22,c1ccc(NCCn2cc(C3CCCNC3)nn2)cc1 (stereo not given),-3.12

row,SMILES,cytotoxicity at 70.5 h [%]
1,N#CC1(C(=O)N2C[C@H](Nc3ccnc(N)n3)[C@@H](C3CC3)C2)CCOCC1,-3.81
2,CC(C)C1CN(C(=O)c2csc(CN(C)C)n2)CCC(=O)N1CC1CC1 (stereo not given),-10.8
3,Cc1nc(C(C)C)sc1C(=O)N(C)CCCc1cnn(C)c1,-7.28
4,Cc1ncc2c(c1CNC(=O)C1(C)CCCO1)CCNC2 (stereo not given),-7.21
5,CCCc1nc(N2CCCN3CCC[C@H]3C2)c2cnn(C)c2n1,15.2
6,COC(=O)CCNC(=O)c1coc(COc2ccc(F)cc2)n1,-5.99
7,NC1(C(=O)NCC2CCCN(Cc3ccccc3F)C2)CCCC1 (stereo not given),-1.04
8,CCn1nc(C)c(C(=O)N2C[C@@H](CN(C)C)[C@@H](CO)C2)c1C,0.473
9,CC1(Cc2ccc3c(c2)OCO3)CCCN(S(=O)(=O)N2CCOCC2)C1 (stereo not given),-6.32
10,O=S(=O)(NCc1ccccc1)NCc1nc(-c2ccncc2)n[nH]1,-5.68
11,COCc1cc(CNC(=O)c2cc(NC(C)=O)ccc2Cl)n[nH]1,-6.43
12,COC(=O)CCC(=O)N(C/C=C/c1ccccc1)CCO,23.1
13,Cc1nc(N2CCCC(OCc3ccccn3)C2)c2c(C)noc2n1 (stereo not given),-9.19
14,FC(F)Oc1ccccc1CN1CCCC(c2nccn2CC2CC2)C1 (stereo not given),-1.02
15,CCNc1ccnc(NC2CCN(CC(N)=O)CC2)n1,14
16,COc1coc(CN2CCCC3(CCC(=O)N(CC4CC4)C3)C2)cc1=O (stereo not given),-8.43
17,Cc1nsc(NC(=O)NC2(CN3CCOCC3)CCCCC2)n1,1.42
18,OC1CCN(CCCn2ccnc2-c2c[nH]cn2)CC1,-5.95
19,CC(C)(O)CCc1ccc(C(=O)N2CCN(CC(F)(F)F)CC2)cc1,3.68
20,Cc1nc(-c2cccc(N3CCC(N4CCCC(C#N)C4)CC3)c2)cs1 (stereo not given),22.1
21,Cc1cnc(C)c(N2CC[C@H](N3CCOCC3)[C@H](CCCO)C2)n1,-9.88
22,Cc1cccnc1N1CCN(C(=O)C(C)n2ccnc2C(C)C)CC1 (stereo not given),-2.78

row,SMILES,cytotoxicity at 70.5 h [%]
1,O=C1NCC2(CCCN(C(=O)CCn3cnc4ccccc43)CC2)O1 (stereo not given),-1.01
2,Cc1ncccc1OC1(C(=O)NCCc2ccccn2)CCNCC1,13.7
3,N[C@H]1CN(CCOc2ccc(F)cc2)C[C@@H]1C1CC1,14.7
4,Cc1ccccc1-c1noc(-c2ccc(N(C)C3CCOCC3)nc2)n1,-2.11
5,CCc1nccn1CCC(=O)N1CCOC(c2ccc(F)cc2)C1 (stereo not given),-6.46
6,CCCn1cc(C(=O)NCC(=O)NC2CC2)c(C)n1,-0.483
7,Cc1ccc(-n2cc(CN3CCN(C)[C@@H]4CS(=O)(=O)C[C@@H]43)cn2)cc1,-5.8
8,Cc1nc(C2CCN(C)CC2)cc(N2CCOc3ccc(Cl)cc3C2)n1,32.5
9,CN(Cc1ccc(C2CC(=O)Nc3cc4[nH]ncc4cc32)o1)S(C)(=O)=O (stereo not given),-0.109
10,CC(C)CN1CCCC1c1ccc(C(=O)Nc2cc[nH]n2)s1 (stereo not given),-0.844
11,CCCc1cnc(C)nc1N1CCC(Cn2cc(CN(C)C)nn2)CC1,-6.13
12,Cc1nc(CCNC(=O)C2CCN(C(C)C)CC2)sc1Cl,-0.288
13,Cc1cc(CN2CCC(C(=O)O)(n3ccc(-c4ccco4)n3)CC2)on1,-2.92
14,Cc1cc(C)n(CC(C)NC(=O)c2cc(CN3CCC(O)CC3)on2)n1 (stereo not given),-9.49
15,COc1cccc(CCC2CCCN(C(C)=O)C2)c1 (stereo not given),-1.99
16,COc1ccccc1CNC(=O)CN(C)C(C)c1ccncn1 (stereo not given),-18.5
17,Cc1ccc(CN2CCC(Cc3nnc(CO)n3C)CC2)cc1C,3.69
18,O=c1c2cccc(F)c2ncn1CCN1CCOCC1,-3.65
19,CN1CC2(CCN(C(=O)Cc3ccc(O)c(F)c3)CC2)CC1=O,10.1
20,O=C(NCc1ccoc1)c1ccc(C2CCCN2CC2CCOCC2)s1 (stereo not given),38.9
21,Cc1nc(C(C)NC(=O)c2cn(C/C=C/c3ccccc3)nn2)n[nH]1 (stereo not given),-13.1
22,COCc1ccc(C(=O)N2CCN(CC3CC3)[C@@H]3CS(=O)(=O)C[C@@H]32)o1,-1.28

row,SMILES,cytotoxicity at 70.5 h [%]
1,CN(C)S(=O)(=O)NCc1cccnc1Oc1ccccc1F,1.78
2,Cc1ccc(C(=O)N2C[C@@H](NS(C)(=O)=O)[C@H](C(C)C)C2)cc1O,1.71
3,COCCN(CC(N)=O)CC1CCCN(C2Cc3ccccc3C2)C1 (stereo not given),7.41
4,O=C(C1CCCO1)N1CCC(n2cc(-c3ccc(F)cc3)nn2)CC1 (stereo not given),0.724
5,CCc1c(C)nn(CCNC(=O)c2csc(C)n2)c1C,-6.58
6,COCCN1CCCC(O)(CN2CCN(c3cc(C)ccn3)CC2)C1=O (stereo not given),-0.635
7,Cc1ccc(N2CCN(C(=O)C3CN(C)C(=O)N3)CC2=O)cc1 (stereo not given),3.04
8,CSC(C)Cc1c(-c2ccccc2)ncn1CCCNc1cccnc1 (stereo not given),-0.408
9,CNC(=O)[C@@H]1C[C@@H](NC(=O)Cc2nonc2C)CN1Cc1sccc1C,1.29
10,O=C(NC1CCCN(CCc2ccccc2)C1)c1ccccn1 (stereo not given),-1.94
11,NC(=O)c1cnc2n1CCN(C(=O)c1ccc(-c3cc[nH]n3)cc1)C2,-10.3
12,CN(Cc1cccnc1)CC1(O)CCCN(CC(C)(C)C)C1=O (stereo not given),-2.66
13,Clc1ccccc1Cc1noc(CN2CCCC(CN3CCCC3)C2)n1 (stereo not given),-3.9
14,O=C(NCc1nc(NC2CCCC2)c2cc(Cl)ccc2n1)c1cscn1,-2.54
15,CN(C)c1ccccc1C(=O)N1CCCC(c2cccc(C(=O)O)c2)C1 (stereo not given),-8.42
16,Nc1cc(C(=O)N2C[C@H]3CC[C@@H]2CN(Cc2cccnc2)C3)ccn1,-6.5
17,CC(C)CN1C(=O)CC[C@H]2CN(Cc3ncc[nH]3)CC[C@H]21,-3.44
18,COc1cccc(C(C(=O)O)N(C)Cc2ccc(C)o2)c1 (stereo not given),-0.112
19,CCc1ccccc1OCCN1C[C@@H](NS(C)(=O)=O)[C@H](C(C)C)C1,-5.69
20,O=C(C1CCCO1)N1CCc2onc(-c3ccc(Cl)cc3)c2C1 (stereo not given),16.8
21,CC(C)Cc1cc(C(=O)NCC(c2ccc(F)cc2)N(C)C)n(C)n1 (stereo not given),-15.4
22,COCCN1C(=O)[C@H]2CC[C@@H]1CN(S(=O)(=O)c1ccc(C#N)cc1)C2,-3.7

# Source: ChEMBL document CHEMBL3507680, “University of Dundee, Gates Library screen for HepG2 cell viability”
